Assay [1] concerns the target GDP-bound HRAS wild-type protein (Homo sapiens, UniProt P01112). Kind of assay: Binding to HRAS by surface plasmon resonance (SPR), Single Cycle Kinetics.
Assay [2] addresses GDP-bound NRAS wild-type protein (Homo sapiens, UniProt P01111). Kind of assay: Binding to NRAS by surface plasmon resonance (SPR), Single Cycle Kinetics. (In SPR one partner is held on a chip, and binding of the other changes the refractive index at the surface.)
The mark [3] stands for this setting: KD ratio, GDP-bound HRAS wild-type vs GDP-bound KRAS wild-type, SPR.
[4] abbreviates: KD ratio, GDP-bound NRAS wild-type vs GDP-bound KRAS wild-type, SPR.

*1 amine or outer side, *2 acyl side, *3 side chain or, on linkers, in order; H or OH if unused. Where a SMILES comes first, the peptide text is derived from it. Bridges are numbered along the chain shown (N, C = ends). [ ]: non-standard residue; d: D form. The star is where a group is joined. hPhe(3,5-F2-4-CF3) = N[C@@H](CCc1cc(F)c(C(F)(F)F)c(F)c1)C(=O)O; hPhe(3-Cl-4-CF3) = N[C@@H](CCc1ccc(C(F)(F)F)c(Cl)c1)C(=O)O; NPrPhe(4-CF3) = CCCN[C@@H](Cc1ccc(C(F)(F)F)cc1)C(=O)O; X16 = O=C([C@@H](N[*:1])C1CC(F)(F)C1)[*:2]; NMeGly(cPent) = CN[C@H](C(=O)O)C1CCCC1; Hyp = O=C(O)[C@@H]1C[C@@H](O)CN1; NMeD = CN[C@@H](CC(=O)O)C(=O)O; NMeL = CN[C@@H](CC(C)C)C(=O)O; Morpholide = C1CN(*)CCO1; Ac5c = NC1(C(=O)O)CCCC1; Aze = O=C(O)[C@@H]1CCN1; Ac4c = NC1(C(=O)O)CCC1; Sar = CNCC(=O)O

Chain of GDP-bound NRAS wild-type protein (P01111 whole entry): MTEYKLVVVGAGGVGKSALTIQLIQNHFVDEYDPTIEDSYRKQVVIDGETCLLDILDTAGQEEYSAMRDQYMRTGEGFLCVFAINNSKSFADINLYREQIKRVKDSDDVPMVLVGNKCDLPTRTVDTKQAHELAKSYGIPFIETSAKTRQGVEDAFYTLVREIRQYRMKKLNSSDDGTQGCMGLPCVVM
Chain of GDP-bound HRAS wild-type protein (P01112 whole entry): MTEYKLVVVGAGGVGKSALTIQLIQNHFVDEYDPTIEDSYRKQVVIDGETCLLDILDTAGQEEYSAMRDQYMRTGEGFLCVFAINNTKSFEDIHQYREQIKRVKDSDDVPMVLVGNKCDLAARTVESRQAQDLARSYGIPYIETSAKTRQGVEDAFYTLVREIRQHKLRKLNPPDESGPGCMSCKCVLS

With `CCCN(C)C(=O)[C@@H]1CC(=O)N(C)[C@@H](CC)C(=O)N[C@@H]([C@@H](C)CC)C(=O)N(C)CC(=O)N(C)[C@H]2C/C=C\CCN(C2=O)[C@@H](Cc2ccc(C(F)(F)F)cc2)C(=O)N(C)CC(=O)N[C@@H](CCc2cc(F)c(C(F)(F)F)c(F)c2)C(=O)N2C[C@H](OCC)C[C@H]2C(=O)NC2(CC(C)(C)C2)C(=O)N(C)[C@@H](C2CCCC2)C(=O)N1C` [PP1670], the “HRAS/KRAS (ratio of KD value for HRAS to KD value for KRAS)” value in assay [1] (setting [3]) was “A (a compound having 10 or more and less than 20 is denoted as A)”. Also, in assay [2] (setting [4]), the “NRAS/KRAS (ratio of KD value for NRAS to KD value for KRAS)” value was “A (a compound having 10 or more and less than 20 is denoted as A)”.
Consider `CCO[C@@H]1C[C@H]2C(=O)NC3(CC(C)(C)C3)C(=O)N(C)[C@@H](C3CCCC3)C(=O)N(C)[C@H](C(=O)N(CC)CC)CC(=O)N(C)[C@@H](COC)C(=O)N[C@@H]([C@@H](C)CC)C(=O)N(C)CC(=O)N(C)[C@H]3C/C=C\CCN(C3=O)[C@@H](Cc3ccc(C)cc3)C(=O)N(C)CC(=O)N[C@@H](CCc3cc(F)c(C(F)(F)F)c(F)c3)C(=O)N2C1` [PP2403], for which, in assay [1] (SPR, GDP-bound HRAS wild-type vs GDP-bound KRAS wild-type), the “HRAS/KRAS (ratio of KD value with respect to HRAS to KD value with respect to KRAS)” value was “A (a compound having 10 or more and less than 20 is denoted as A)”. Further, the “NRAS/KRAS (ratio of KD value with respect to NRAS to KD value with respect to KRAS)” value in assay [2] (SPR, GDP-bound NRAS wild-type vs GDP-bound KRAS wild-type) was “A (a compound having 10 or more and less than 20 is denoted as A)”.
As for `CCCN1C(=O)CN(C)C(=O)CNC(=O)[C@H]([C@@H](C)CC)NC(=O)[C@H](CC(C)C)N(C)C(=O)C[C@@H](C(=O)N(C)C)N(C)C(=O)[C@H](C2CCCC2)N(C)C(=O)C2(CCC2)NC(=O)[C@@H]2C[C@@H](OCC)CN2C(=O)[C@H](CCc2ccc(C(F)(F)F)c(Cl)c2)NC(=O)CN(C)C(=O)[C@@H]1Cc1ccc(C(F)(F)F)cc1` [PP0422] ([NMeL]IG[Sar][NPrPhe(4-CF3)][Sar][hPhe(3-Cl-4-CF3)][Hyp](Et)[Ac4c][NMeGly(cPent)][NMeD]-NMe2; lactam N-11), the “HRAS/KRAS (ratio of KD value with respect to GDP-bound HRAS wild-type protein to KD value with respect to KRAS)” value in assay [1] (SPR) is “B (a compound having 3 or more and less than 10 is denoted as B)”. The “NRAS/KRAS (ratio of KD value with respect to GDP-bound NRAS wild-type protein to KD value with respect to KRAS)” value in assay [2] (SPR) is “B (a compound having 3 or more and less than 10 is denoted as B)”.
Consider `CCCN1C(=O)[C@@H]2CCN2C(=O)CN(C)C(=O)[C@H](C2CC(F)(F)C2)NC(=O)[C@H](CC(C)C)N(C)C(=O)C[C@@H](C(=O)N2CCOCC2)N(C)C(=O)[C@H](C2CCCC2)N(C)C(=O)C2(CCCC2)NC(=O)[C@@H]2CCCN2C(=O)[C@H](CCc2cc(F)c(C(F)(F)F)c(F)c2)NC(=O)CN(C)C(=O)[C@@H]1Cc1ccc(C(F)(F)F)cc1` [PP0787] ([NMeL][X16][Sar][Aze][NPrPhe(4-CF3)][Sar][hPhe(3,5-F2-4-CF3)]P[Ac5c][NMeGly(cPent)][NMeD]-Morpholide; lactam N-11), for which the “HRAS/KRAS (ratio of KD value with respect to GDP-bound HRAS wild-type protein to KD value with respect to KRAS)” value in assay [1] (SPR) is “B (a compound having 3 or more and less than 10 is denoted as B)”. Moreover, in assay [2] (SPR), the “NRAS/KRAS (ratio of KD value with respect to GDP-bound NRAS wild-type protein to KD value with respect to KRAS)” value was “C (A compound having a KD ratio of 0.1 or more and less than 3 is denoted as C)”.
Turning to `CCO[C@@H]1C[C@H]2C(=O)NC3(CC(C)(C)C3)C(=O)N(C)[C@@H](C(CC)CC)C(=O)N(C)[C@H](C(=O)N3CCCC3)CC(=O)N(C)[C@H]3CCC/C=C/c4ccc(cc4)C[C@@H](C(=O)N(C)CC(=O)N[C@@H](CCc4cc(F)c(C(F)(F)F)c(F)c4)C(=O)N2C1)N1CC/C=C\C[C@@H](C1=O)N(C)C(=O)CN(C)C(=O)[C@H]([C@@H](C)CC)NC3=O` [PP2576], the “HRAS/KRAS (ratio of KD value with respect to GDP-bound HRAS wild-type protein to KD value with respect to KRAS)” value in assay [1] (class symbols) is “A (a compound having 10 or more and less than 20 is denoted as A)”. Moreover, the “NRAS/KRAS (ratio of KD value with respect to GDP-bound NRAS wild-type protein to KD value with respect to KRAS)” value in assay [2] (class symbols) was “A (a compound having 10 or more and less than 20 is denoted as A)”.
Regarding `CCO[C@@H]1C[C@H]2C(=O)NC3(CCC3)C(=O)N(C)[C@@H](C3CCCC3)C(=O)N(C)[C@H](C(=O)N(C)C)CC(=O)N(C)[C@@H](Cc3cccc(Cl)c3)C(=O)N[C@@H]([C@@H](C)CC)C(=O)N(C)CC(=O)N(C)[C@H]3C/C=C\CCN(C3=O)[C@@H](Cc3ccc(C(F)(F)F)cc3)C(=O)N(C)CC(=O)N[C@@H](CCc3cc(F)c(C(F)(F)F)c(F)c3)C(=O)N2C1` [PP1127], the “HRAS/KRAS (ratio of KD value with respect to HRAS to KD value with respect to KRAS)” value in assay [1] (setting [3]) was “A (a compound having 10 or more and less than 20 is denoted as A)”. In assay [2] (setting [4]), the “NRAS/KRAS (ratio of KD value with respect to NRAS to KD value with respect to KRAS)” value was “AA (a compound having 20 or more is denoted as AA)”.
Regarding `CC[C@H](C)[C@@H]1NC(=O)[C@H](CC(C)C)N(C)C(=O)C[C@@H](C(=O)N2CCOCC2)N(C)C(=O)[C@H](C2CCCC2)N(C)C(=O)C2(CCCC2)NC(=O)[C@@H]2CCCN2C(=O)[C@H](CCc2ccc(C(F)(F)F)c(Cl)c2)NC(=O)CN(C)C(=O)[C@H](Cc2ccccc2)N2CC=CC[C@@H](C2=O)N(C)C(=O)CN(C)C1=O` [PP0528], in assay [1] (SPR), the “HRAS/KRAS (ratio of KD value with respect to GDP-bound HRAS wild-type protein to KD value with respect to KRAS)” value is “C (A compound having a KD ratio of 0.1 or more and less than 3 is denoted as C)”. The “NRAS/KRAS (ratio of KD value with respect to GDP-bound NRAS wild-type protein to KD value with respect to KRAS)” value in assay [2] (SPR) was “C (A compound having a KD ratio of 0.1 or more and less than 3 is denoted as C)”.

(Values after patent US20250230193A1, “CYCLIC COMPOUND HAVING SELECTIVE KRAS INHIBITORY EFFECT ON HRAS AND NRAS” (CHUGAI SEIYAKU KABUSHIKI KAISHA, priority 2022, published 2025).)
